# Results published in PMC6394892, “The identification and use of robust transaminases from a domestic drain metagenome” (Green Chemistry, 2018).
# Assays:
# pQR2189 [1] = test system: T1, pQR2189; assay: continuous UV absorbance at […] nm, Michaelis-Menten fit; assay type: biochemical, uncultured bacterium (household drain metagenome); conditions: apparent, PLP 0.1 mM, KPi pH 7.5 50 mM, 1% DMSO, 30 °C
# T1 construct: N- and C-terminal His6 tags, pET-28a(+) NdeI/XhoI, expressed in E. coli BL21(DE3)
# pQR2189 [2] = test system: T1, pQR2189; assay: HPLC initial rates, Michaelis-Menten fit; assay type: biochemical, uncultured bacterium (household drain metagenome); conditions: apparent, PLP 1 mM, KPi pH 8 50 mM, 20% DMSO, 35 °C
# Source text: HPLC initial rates, Michaelis-Menten fit on pQR2189
smiles,measurement,setting,value
"CC(=O)C(=O)O [compound 2, pyruvate]",Km,pQR2189 [1]; amine donor (S)-7 5 mM,0.29 ± 0.08 mM
"C[C@H](N)c1ccccc1 [(S)-7, (S)-α-methylbenzylamine]",Km,pQR2189 [1]; pyruvate 1 mM,14.8 ± 3.2 mM
"CC(C)(C)OC(=O)N1CCC(=O)C1 [18a, 1-Boc-3-pyrrolidinone]",Km,pQR2189 [2]; isopropylamine 200 mM,18.9 ± 3.1 mM
"CC(C)N [compound 27, isopropylamine]",Km,pQR2189 [2]; 1-Boc-3-pyrrolidinone 10 mM,10.6 ± 1.6 mM
